# According to patent US20240391928A1, “COMPOSITIONS FOR THE TREATMENT OF FOOD AND CHEMICAL ADDICTION AND METHODS OF MAKING AND USING SAME” (Duke University, priority 2021, published 2024):
# Entries after “also recorded” stand apart in the source; their conditions may differ.
# Columns and labels:
# [1] = molecular target: T1, hGHSR1a^WT-RLucII / mVenus-β-arr2 (Homo sapiens, UniProt Q92847); assay: BRET β-arr2 recruitment; assay type: cell-based
# T1 construct: expressed in transfected cells; host or cells: HEK293/T, transient
# T1 sequence (Q92847 whole entry): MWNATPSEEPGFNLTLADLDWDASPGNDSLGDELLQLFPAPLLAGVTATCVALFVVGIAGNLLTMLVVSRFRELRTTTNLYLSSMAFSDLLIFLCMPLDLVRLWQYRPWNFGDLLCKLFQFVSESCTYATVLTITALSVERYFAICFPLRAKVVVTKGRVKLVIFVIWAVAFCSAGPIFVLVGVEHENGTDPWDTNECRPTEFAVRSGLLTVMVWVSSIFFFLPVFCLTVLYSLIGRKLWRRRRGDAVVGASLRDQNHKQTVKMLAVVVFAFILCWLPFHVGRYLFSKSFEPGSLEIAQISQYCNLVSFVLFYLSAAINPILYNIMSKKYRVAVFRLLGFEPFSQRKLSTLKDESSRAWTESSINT
# T1 sequence (P32121 whole entry partner): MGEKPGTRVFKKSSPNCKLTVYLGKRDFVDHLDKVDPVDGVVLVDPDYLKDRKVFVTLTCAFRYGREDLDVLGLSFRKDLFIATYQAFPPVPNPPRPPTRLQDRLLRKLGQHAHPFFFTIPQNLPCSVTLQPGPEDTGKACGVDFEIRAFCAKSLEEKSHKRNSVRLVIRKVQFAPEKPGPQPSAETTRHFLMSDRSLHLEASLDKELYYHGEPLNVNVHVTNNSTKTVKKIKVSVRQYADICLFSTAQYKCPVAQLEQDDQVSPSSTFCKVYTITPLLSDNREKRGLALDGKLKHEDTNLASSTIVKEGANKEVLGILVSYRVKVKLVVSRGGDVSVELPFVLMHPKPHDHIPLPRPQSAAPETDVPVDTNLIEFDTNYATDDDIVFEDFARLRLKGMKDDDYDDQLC
# Procedure: The morning after transfection, media was exchanged and after 4-6 hours, cells were then plated on white 96-well, clear-bottomed assay plates at a density of 45,000 cells/well in opti-MEM supplemented with 2% FBS and antibiotic/antimycotic. The following morning, opti-MEM was removed and cells were incubated with 70-80 μL HBSS supplemented with 20 mM HEPES (pH 7.4) for 4 hours. Cells were then treated with 10 μL of coelenterazine H (5 μM final) for 5-10 minutes at room temperature.
# GHSR1a^N305A = molecular target: T2, GHSR1a^N305A (Homo sapiens, UniProt Q92847, N305A); assay: TRUPATH Gαq dissociation at N305A mutant; assay type: cell-based
# T2 construct: expressed in transfected cells; host or cells: HEK293/T
# T2 sequence (Q92847 whole entry N305A): as the sequence (Q92847 whole entry) above, with N305A counted along it
# [2] = Pharmacokinetic analysis in C57BL/6 mice
# Procedure: Pharmacokinetic Analysis. Male C57BL/6 mice were used for pharmacokinetic studies and were purchased from Charles River Laboratories. DAT KO mice were backcrossed for >10 generations onto a C57BL/6J (Jackson Laboratory, Bar Harbor, ME) genetic background. Mice were bred and maintained on a standard 12:12 hour light:dark cycle, socially housed, and supplied with standard laboratory chow and water ad libitum, except during testing. […] Plasma, brain and liver samples were collected over 24 hours. […] The mean concentration from 3 animals at each time-point was used in the pharmacokinetic (PK) analysis. PK parameters were calculated with Phoenix WinNonlin Software (Ver. 8.0, Certara).
# DAT knockout (KO) mice = assay: Spontaneous hyperlocomotion in DAT KO mice (open field); assay type: in vivo, mouse; conditions: 2.5, 5, or 10 mg/kg, IP; 120 minutes
# Procedure: To evaluate the effect of N8279 on DAergic-modulated behavior in vivo, DAT knockout (KO) mice, which have constitutively elevated extracellular DA levels and consequently, spontaneous hyperactivity in a novel, open-field were used. After a 30 minute acclimation period, male and female DAT KO mice were administered vehicle or pharmacologically-relevant, brain penetrant doses of N8279 (FIG. 4A; 2.5, 5, or 10 mg/kg, IP), then were returned to the open-field and locomotion measured for 120 minutes.
# Novelty-induced locomotor activity in DAT KO and inbred C57BL/6J mice. Open-field locomotor activity in mice was performed similar to that described in Barak et al., ACS Chem Biol. (2016)11(7):1880-90, the disclosure of which is incorporated herein in its entirety. In brief, Age- and sex-matched, littermate DAT KO and inbred C57BL/6J mice between 2-6 months of age were used to measure locomotor activity in an Omnitech Digiscan activity monitor (20×20 cm2; Accuscan Instruments, Columbus, OH). Locomotor activity was measured at 5 minutes intervals. To evaluate the effects of compounds on locomotor behavior, the mice were placed in an activity monitor for a 20-minute habituation period, and afterwards injected with drug or vehicle, returned to the monitor, and locomotor activity was recorded over a period of 90 minutes.
# hGHSR1a^A204E = hGHSR1a^A204E (Homo sapiens, UniProt Q92847, A204E); assay: NanoBiT β-arr2 recruitment at A204E variant; conditions: did not reach saturation
# Chain of hGHSR1a^A204E (Q92847 whole entry A204E): as the sequence (Q92847 whole entry) above, with A204E counted along it
# Chain of hGHSR1a^A204E (P32121 whole entry partner): as the sequence (P32121 whole entry partner) above
# Procedure: β-arr2 recruitment: In agonist and antagonist assays of NanoBiT-based β-arr2 recruitment, hGHSR1a^WT-Lg^BiT and ^SmBiT-β^WT were transiently co-transfected at a 1:1 ratio (250 μg each) into monolayers of HEK293/T cells on 6-well plates along with 2 μg of pcDNA3.1. For assays employing the Ala204Glu variant, hGHSR1a^A204E-Lg^BiT was transfected at 2×hGHSR1a^WT-Lg^BiT, as performed for iCa^2+ assays with hGHSR1a^A204E described above. For GHSR1a-β-arr2 saturation assays, a fixed amount of hGHSR1a^WT-Lg^BiT cDNA (250 μg) was transfected with 0, 62.5 (1:0.25), 125 (1:0.5), 250 (1:1), 500 (1:2), or 1000 (1:4) μg of ^SmBiTβ-arr^WT. The morning after transfection, media was exchanged and after 4-6 hours, cells were then plated on white 96-well, clear-bottomed assay plates at a density of 45,000 cells/well in opti-MEM supplemented with 2% FBS and antibiotic/antimycotic. The following morning, opti-MEM was removed and cells were incubated with 70-80 μL HBSS supplemented with 20 mM HEPES (pH 7.4) for 4 hours. Cells were then treated with 10 μL of coelenterazine H (5 μM final) for 15-20 minutes at room temperature. Cells were then stimulated with 10 μL of test compounds and 2 minutes later, luminescence was measured over 5 minutes, which encompassed the peak β-arr2 recruitment signal.
# hGHSR1a^WT [3] = molecular target: T3, hGHSR1a^WT (Homo sapiens, UniProt Q92847); assay: Gαq-dependent intracellular Ca2+ mobilization (iCa2+, miAeq); assay type: cell-based; design: HEK293/T (transient); HEK293S Gαq knockout (transient, NanoBiT Gαq)
# T3 sequence (Q92847 whole entry): as the sequence (Q92847 whole entry) above
# Procedure: Gαq-Dependent Intracellular Ca^2+ Mobilization. […] Cells were split into and seeded into 10 cm dishes without antibiotic selection and grown to confluency overnight. The next morning, cells were serum starved in 10 mL of clear opti-MEM (supplemented with L-glutamine and HEPES; Gibco, Waltham, MA) for 3-4 hours in a 37° C. incubator with 5% CO2. Then, 25 μL of coelenterazine H (NanoLight Technology, Pinetop, AZ) was added to each 10 mL dish and incubated for another 1-2 hours. For antagonist assays, test compounds were either added directly to the media in 10 cm dishes, or cells were collected by gentle washing/trituration and plated onto white, clear-bottomed 96-well plates for 30 minutes—1 hour. Once the coelenterazine H (or antagonist) incubation was complete, cells were harvested from the 10 cm dish by gentle washing/trituration and collected in a 15 mL conical tube. Cell suspensions were then immediately subjected to assay by injecting cells onto a white, clear-bottomed 96-well plate containing 2× test compounds. Luminescence was read without delay and for 10 seconds per well. To control for cell number variability, cells were lysed in 2× lysis buffer (100 mM CaCl2+0.2% Triton-X) immediately following the assay. The max ligand-induced response (Ca^2+ mobilization: net-miAeq) over 10 seconds was normalized by dividing the ligand-induced luminescence counts (L-miAeq) by the ligand-induced luminescence counts (L-MiAeq) plus the luminescence measured upon cell lysis (Lysis-miAeq). Relative, lysis-normalized data were then normalized to the appropriate control/reference condition.
# For experiments with WT and Gt KO HEK293/S cells, […] of hGHSR1a^WT, 10 μg of miAEQ, and 2.5 μg of pcDNA3.1 was transiently transfected into 10 cm dishes and incubated overnight. […] Twenty-four hours later, experiments proceeded in accordance with the procedures described above. To control for any possible kinetic differences in genetically modified cell lines or GHSR1a variants, the average ligand-induced response over 10 seconds was calculated, then normalized by dividing the L-miAeq by the L-miAeq plus the Lysis-miAeq and normalized to the appropriate control/reference condition.
# hGHSR1a^WT [4] = molecular target: T3, hGHSR1a^WT; assay: SRF-RE transcriptional activity; assay type: cell-based; design: expressed in transfected cells; HEK293/S Gαq/11 KO and parental WT (iCa2+)
# Procedure: The next morning, media was removed and cells were serum starved with 90 μL of opti-MEM (containing no serum) for 2 hours at 37° C. Cells were then stimulated with 10× test compounds (diluted in serum-free opti-MEM) for 5 hours at 37° C. in a humidified incubator. Cells were then lysed in 20 μL of 1× passive lysis buffer (Promega) for 10 minutes on a shaker (RT). To measure luminescence, 40 μL of luciferin (in HBSS supplemented with 20 mM HEPES) was injected into in each well and immediately read by a Mithras 940 plate reader for 10 seconds.
smiles,measurement,setting,value
"COc1ccc(C(=O)c2c(C(=O)NCCCN(C)C)oc3ccc(Cl)cc3c2=O)cc1OC [Example N8279, 6-Chloro-3-(3,4-dimethoxybenzoyl)-N-(3-(dimethylamino)propyl)-4-oxo-4H-chromene-2-carboxamide]","BRET β-arr2 recruitment, fold less potent than ghrelin",[1],~100 fold
same,Gαq dissociation at GHSR1a^N305A in words,GHSR1a^N305A,reduced dramatically
same,brain:plasma ratio,[2]; IP,0.6-0.9
same,AUCextrap,"[2]; IP 5 mg/kg, brain",7.1%
same,AUC ratio (tissue/plasma),"[2]; IP 5 mg/kg, brain/plasma",0.6
same,AUCextrap,"[2]; IP 5 mg/kg, liver",0.1%
same,AUC ratio (tissue/plasma),"[2]; IP 5 mg/kg, liver/plasma",49
same,AUCextrap,"[2]; IP 5 mg/kg, plasma",0.6%
same,AUCextrap,"[2]; IV 1 mg/kg, brain",10%
same,AUC ratio (tissue/plasma),"[2]; IV 1 mg/kg, brain/plasma",0.8
same,AUCextrap,"[2]; IV 1 mg/kg, liver",0.2%
same,AUC ratio (tissue/plasma),"[2]; IV 1 mg/kg, liver/plasma",40
same,AUCextrap,"[2]; IV 1 mg/kg, plasma",2.4%
same,AUCextrap,"[2]; PO 5 mg/kg, brain",24%
same,AUC ratio (tissue/plasma),"[2]; PO 5 mg/kg, brain/plasma",0.9
same,AUCextrap,"[2]; PO 5 mg/kg, liver",0.1%
same,AUC ratio (tissue/plasma),"[2]; PO 5 mg/kg, liver/plasma",77
same,AUCextrap,"[2]; PO 5 mg/kg, plasma",11%
same,brain half-life (t1/2) after IP and PO administration,"[2]; brain, IP and PO 5 mg/kg",6.6 to 11 h
same,bioavailability,"[2]; male, C57BL/6, mouse, in vivo, ip, 5 mg/kg",27%
same,AUC(0-t),"[2]; male, C57BL/6, mouse, liver, iv, 1 mg/kg",57100 ng·h/mL
same,Cmax,"[2]; read-out: peak concentration (Cmax) in brain, IP 5 mg/kg, brain",259 nM
same,hyperlocomotion in DAT KO mice in words,DAT knockout (KO) mice,reduced locomotion; also recorded: reduced overall hyperlocomotion
same,β-arr2 recruitment potency reduction at GHSR1a^A204E vs WT,hGHSR1a^A204E,> 20 fold
same,"iCa2+ EC50, fold more potent than own GHSR1a binding IC50",hGHSR1a^WT [3],41 fold
same,"iCa2+ potency, fold less potent than L585",hGHSR1a^WT [3],3.4 fold
same,"iCa2+ potency, fold less potent than MK-0677",hGHSR1a^WT [3],5.3 fold
same,"iCa2+ potency, fold more potent than ghrelin",hGHSR1a^WT [3],8.9 fold
same,increase in ghrelin's iCa2+ potency by N8279,"hGHSR1a^WT [3]; N8279 10 μM, concomitant",~3 fold
same,modulation of ghrelin-induced iCa2+ in words,hGHSR1a^WT [3]; concomitant N8279,weak ago-PAM activity
same,iCa2+ efficacy in words,hGHSR1a^WT [3]; relative to ghrelin,full agonist
same,SRF-RE potency reduction relative to L585,hGHSR1a^WT [4],~10 fold
same,SRF-RE potency reduction relative to ghrelin,hGHSR1a^WT [4],~15 fold
same,SRF-RE transcription efficacy in words,hGHSR1a^WT [4],full agonist
